Reference: patent US10906876B2, “Tetrahydroisoquinolines as selective NADPH oxidase 2 inhibitors” (University of Pittsburgh—Of the Commonwealth System of …, priority 2013, dated 2021)

Target: T1, Nox5 (Homo sapiens, UniProt Q96PH1)
T1 construct: expressed in transfected cells; host or cells: HEK-Nox5 cells (gift of D. Fulton)
T1 sequence (Q96PH1 19-737 isoform Q96PH1-3 limits assumed): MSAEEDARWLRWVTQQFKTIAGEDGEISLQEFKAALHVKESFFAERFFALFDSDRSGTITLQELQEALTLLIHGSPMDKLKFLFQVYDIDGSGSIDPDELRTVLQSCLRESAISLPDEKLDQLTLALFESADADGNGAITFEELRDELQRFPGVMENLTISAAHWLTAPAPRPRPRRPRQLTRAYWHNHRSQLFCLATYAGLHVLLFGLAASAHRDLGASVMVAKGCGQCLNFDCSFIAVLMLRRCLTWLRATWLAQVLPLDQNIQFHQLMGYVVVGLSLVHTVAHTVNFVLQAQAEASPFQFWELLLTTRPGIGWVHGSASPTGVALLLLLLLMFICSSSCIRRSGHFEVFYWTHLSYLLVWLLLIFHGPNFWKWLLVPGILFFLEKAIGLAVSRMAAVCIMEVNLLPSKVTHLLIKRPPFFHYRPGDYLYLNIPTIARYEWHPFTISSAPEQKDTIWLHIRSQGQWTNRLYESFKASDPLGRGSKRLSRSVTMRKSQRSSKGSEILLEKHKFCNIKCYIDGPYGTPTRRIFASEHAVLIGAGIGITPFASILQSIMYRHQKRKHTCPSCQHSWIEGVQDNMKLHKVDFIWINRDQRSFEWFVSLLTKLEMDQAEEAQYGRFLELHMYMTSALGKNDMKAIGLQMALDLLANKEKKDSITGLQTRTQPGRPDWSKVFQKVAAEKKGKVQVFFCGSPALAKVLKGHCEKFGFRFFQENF
Experiment: Nox5 activity in HEK-Nox5 cells, L-012 assay
Assay type: cell-based
Details: for IC50: HEK-Nox5 cells stimulated with 1 μM PMA and 0.5 ionomycin, L-012, read-out: IC50 of ROS generation, Nox5 (L-012 assay); for Nox5 inhibitory activity: Table 2
From the text: All cell culture reagents were obtained from Invitrogen, unless indicated. COS-22 (COS-7 cells stably expressing human p22^phox) and COS-Nox2 (a.k.a. COS-phox) cells (COS-7 cells stably expressing human p22^phox, Nox2, p47^phox and p67^phox) were kindly provided by Dr. Mary C. Dinauer (Indiana University, School of Medicine) (Price et al., Blood, 2002, 99:2653-2661). COS-22 cells were maintained in Dulbecco's Modified Eagle Medium (DMEM) with 4.5 g/L glucose, L-glutamine and sodium pyruvate containing 10% heat-inactivated fetal bovine serum (FBS), 100 units/ml penicillin and 100 μg/ml streptomycin (complete media) supplemented with 1.8 mg/ml G418 (Calbiochem/EMB Bioscience, Gibbstown, N.J.). COS-Nox2 cells were maintained in complete media supplemented with 1.8 mg/mL G418, 1 μg/mL puromycin (Sigma, St Louis, Mo.) and 0.2 mg/mL hygromycin B (Invitrogen, Carlsbad, Calif.). HEK-Nox5 cells were kindly provided by Dr. David Fulton (Georgia Health Sciences University) and maintained in complete media.
COS-Nox2, COS-Nox1/NOXO1/NOXA1, HEK-Nox5 and COS-22 cells were re-plated in OPTIMEM into 384-well white micro-plates (Greiner-Bio One GmbH, Germany) at a density of 2.5×10^3 cells/well for COS-Nox2 and 5×10^4 cells/well for all others. The cells were incubated at 37° C. in PBS containing 400 μm L-012 for 10 min. […] Since Nox1 was constitutively active, Nox1-derived O2^•− was assessed by comparison to non-transfected cells (Cos22). Luminescence was quantified over time using a Biotek Synergy 4 Hybrid Multi-Mode Microplate Reader. The specificity of L-012 for O2^•− was confirmed by the addition of SOD (150 U/mL).
All data are expressed as means±SEM. IC50 values were determined using the GraphPad Prism software (GraphPad Software, San Diego, Calif.) for non-linear regression three-parameters, with constrain values of 100 and 0 for top and bottom, respectively, and assumes a Hill slope of 1.

C=C(C)CC1NC2CC(C)(C)C1c1c(Br)cccc12 (racemic) [Compound 7, (±)-(1S,4R,9S)-5-Bromo-3,3-dimethyl-9-(2-methylallyl)-1,2,3,4-tetrahydro-1,4-(epimino-methano)-naphthalene]
IC50: 20 ± 3.1 µM
Nox5 inhibitory activity: active

C=C(C)CC1NC2CC(C)(C)C1c1ccccc12 (racemic) [Compound 8, (±)-(1S,4R,9S)-3,3-Dimethyl-9-(2-methylallyl)-1,2,3,4-tetrahydro-1,4-(epiminomethano)-naphthalene]
IC50: > 100 µM
Nox5 inhibitory activity: inactive

C=C(C)CC1C2c3ccccc3C(CC2(C)C)N1Cc1cccc(F)c1 (racemic) [Compound 11a, (±)-(1S,4R,9S)-10-(3-Fluorobenzyl)-3,3-dimethyl-9-(2-methylallyl)-1,2,3,4-tetrahydro-1,4-(epiminomethano)naphthalene]
IC50: 50 ± 9 µM
Nox5 inhibitory activity: inhibited

C=C(C)CC1C2c3c(Br)cccc3C(CC2(C)C)N1Cc1ccnc2ccccc12 (racemic) [Compound 11b, (±)-(1S,4R,9S)-5-Bromo-3,3-dimethyl-9-(2-methylallyl)-10-(quinolin-4-ylmethyl)-1,2,3,4-tetra-hydro-1,4-(epiminomethano)naphthalene]
IC50: > 100 µM

C=C(C)CC1C2c3c(Br)cccc3C(CC2(C)C)N1Cc1c[nH]c2ccccc12 (racemic) [Compound 11c, (±)-(1S,4R,9S)-10-((1H-Indol-3-yl)methyl)-5-bromo-3,3-dimethyl-9-(2-methylallyl)-1,2,3,4-tetrahydro-1,4-(epiminomethano)naphthalene]
IC50: > 100 µM

C=C(C)CC1C2c3c(Br)cccc3C(CC2(C)C)N1Cc1ccc2c(c1)OCO2 (racemic) [Compound 11d, (±)-(1S,4R,9S)-10-(Benzo[d][1,3]dioxol-5-ylmethyl)-5-bromo-3,3-dimethyl-9-(2-methylallyl)-1,2,3,4-tetrahydro-1,4-(epiminomethano)naphthalene]
IC50: > 100 µM

C=C(C)CC1C2c3c(Br)cccc3C(CC2(C)C)N1Cc1cc(C)on1 (racemic) [Compound 11e, (±)-3-(1S,4R,9S)-5-Bromo-3,3-dimethyl-9-(2-methylallyl)-1,2,3,4-tetrahydro-1,4-(epimino-methano) naphthalen-10-yl)methyl)-5-methylisoxazole]
IC50: 31 ± 11 µM
Nox5 inhibitory activity: inhibited

C=C(C)CC1C2c3c(Br)cccc3C(CC2(C)C)N1Cc1cccc(F)c1 (racemic) [Compound 11f, (±)-(1S,4R,9S)-5-Bromo-10-(3-fluorobenzyl)-3,3-dimethyl-9-(2-methylallyl)-1,2,3,4-tetrahydro-1,4-(epiminomethano)naphthalene]
IC50: 79 ± 30 µM
Nox5 inhibitory activity: inhibited

C=C(C)CC1C2c3c(Br)cccc3C(CC2(C)C)N1CCCCC (racemic) [Compound 11g, (±)-(1S,4R,9S)-5-Bromo-3,3-dimethyl-9-(2-methylallyl-10-pentyl-1,2,3,4-tetrahydro-1,4-(epiminomethano)naphthalene]
IC50: > 100 µM
Nox5 inhibitory activity: virtually no effect

C=C(C)CC1C2c3c(Br)cccc3C(CC2(C)C)N1Cc1cccs1 (racemic) [Compound 11h, (±)-(1S,4R,9S)-5-Bromo-3,3-dimethyl-9-(2-methylallyl)-10-(thiophen-2-ylmethyl)-1,2,3,4-tetrahydro-1,4-(epiminomethano)naphthalene]
IC50: > 100 µM
Nox5 inhibitory activity: virtually no effect

C=C(C)CC1NC2CC(C)(C)C1c1c(-c3ccc(Cl)c(Cl)c3)cccc12 (racemic) [Compound 12a, (±)-(1S,4R,9S)-5-(3,4-Dichlorophenyl)-3,3-dimethyl-9-(2-methylallyl)-1,2,3,4-tetrahydro-1,4-(epiminomethano)naphthalene]
IC50: 14 ± 0.6 µM
Nox5 inhibitory activity: comparable

C=C(C)CC1C2c3c(-c4ccc(Cl)c(Cl)c4)cccc3C(CC2(C)C)N1Cc1ccc2c(c1)OCO2 (racemic) [Compound 12b, (±)-(1S,4R,9S)-10-(Benzo[d][1,3]dioxol-5-ylmethyl)-5-(3,4-dichlorophenyl)-3,3-dimethyl-9-(2-methylallyl)-1,2,3,4-tetrahydro-1,4-(epiminomethano)-naphthalene]
IC50: > 100 µM

C=C(C)CC1C2c3c(-c4ccc(Cl)c(Cl)c4)cccc3C(CC2(C)C)N1CCCCC (racemic) [Compound 12c]
IC50: > 100 µM

CC(C)CC1NC2CC(C)(C)C1c1c(Br)cccc12 (racemic) [Compound 13]
IC50: 18 ± 1 µM
Nox5 inhibitory activity: retained inhibitory activity

C=C(C)CC1C2c3c(Br)cccc3C(CC2(C)C)N1S(C)(=O)=O (racemic) [Compound 14a, (±)-(1S,4R,9S)-5-Bromo-3,3-dimethyl-9-(2-methylallyl)-10-(methylsulfonyl)-1,2,3,4-tetrahydro-1,4-(epiminomethano)naphthalene]
IC50: > 100 µM

C=C(C)CC1C2c3c(Br)cccc3C(CC2(C)C)N1S(=O)(=O)c1ccc(F)cc1 (racemic) [Compound 14b, (±)-(1S,4R,9S)-5-Bromo-10-((4-fluorophenyl)sulfonyl)-3,3-dimethyl-9-(2-methylallyl)-1,2,3,4-tetrahydro-1,4-(epiminomethano)naphthalene]
IC50: > 100 µM

C=C(C)C[C@@H]1N[C@H]2CC(C)(C)[C@@H]1c1c(Br)ccc(Br)c12 [Compound 9]
IC50: 36 µM
Nox5 inhibitory activity: active
